Measurements reported in patent US4199512A, “Compounds for alleviating hypertension” (E. R. Squibb & Sons, Inc., priority 1978, dated 1980).

Assays:
[1] = target: T1, angiotensin converting enzyme (Oryctolagus cuniculus, UniProt P12822); assay: Inhibition of isolated angiotensin-converting enzyme of rabbit lung (cleavage of hippuryl-L-histidyl-L-leucine); format: biochemical; design: isolated angiotensin converting enzyme from rabbit lungs; from tissue; host or cells: rabbit lung; conditions: 5 mM hippuryl-L-histidyl-L-leucine; pH 8.3; 30 minutes at 37° C.; read-out: I50 (50% inhibition of angiotensin-converting enzyme) (converted)
T1 sequence (P12822 34-1310): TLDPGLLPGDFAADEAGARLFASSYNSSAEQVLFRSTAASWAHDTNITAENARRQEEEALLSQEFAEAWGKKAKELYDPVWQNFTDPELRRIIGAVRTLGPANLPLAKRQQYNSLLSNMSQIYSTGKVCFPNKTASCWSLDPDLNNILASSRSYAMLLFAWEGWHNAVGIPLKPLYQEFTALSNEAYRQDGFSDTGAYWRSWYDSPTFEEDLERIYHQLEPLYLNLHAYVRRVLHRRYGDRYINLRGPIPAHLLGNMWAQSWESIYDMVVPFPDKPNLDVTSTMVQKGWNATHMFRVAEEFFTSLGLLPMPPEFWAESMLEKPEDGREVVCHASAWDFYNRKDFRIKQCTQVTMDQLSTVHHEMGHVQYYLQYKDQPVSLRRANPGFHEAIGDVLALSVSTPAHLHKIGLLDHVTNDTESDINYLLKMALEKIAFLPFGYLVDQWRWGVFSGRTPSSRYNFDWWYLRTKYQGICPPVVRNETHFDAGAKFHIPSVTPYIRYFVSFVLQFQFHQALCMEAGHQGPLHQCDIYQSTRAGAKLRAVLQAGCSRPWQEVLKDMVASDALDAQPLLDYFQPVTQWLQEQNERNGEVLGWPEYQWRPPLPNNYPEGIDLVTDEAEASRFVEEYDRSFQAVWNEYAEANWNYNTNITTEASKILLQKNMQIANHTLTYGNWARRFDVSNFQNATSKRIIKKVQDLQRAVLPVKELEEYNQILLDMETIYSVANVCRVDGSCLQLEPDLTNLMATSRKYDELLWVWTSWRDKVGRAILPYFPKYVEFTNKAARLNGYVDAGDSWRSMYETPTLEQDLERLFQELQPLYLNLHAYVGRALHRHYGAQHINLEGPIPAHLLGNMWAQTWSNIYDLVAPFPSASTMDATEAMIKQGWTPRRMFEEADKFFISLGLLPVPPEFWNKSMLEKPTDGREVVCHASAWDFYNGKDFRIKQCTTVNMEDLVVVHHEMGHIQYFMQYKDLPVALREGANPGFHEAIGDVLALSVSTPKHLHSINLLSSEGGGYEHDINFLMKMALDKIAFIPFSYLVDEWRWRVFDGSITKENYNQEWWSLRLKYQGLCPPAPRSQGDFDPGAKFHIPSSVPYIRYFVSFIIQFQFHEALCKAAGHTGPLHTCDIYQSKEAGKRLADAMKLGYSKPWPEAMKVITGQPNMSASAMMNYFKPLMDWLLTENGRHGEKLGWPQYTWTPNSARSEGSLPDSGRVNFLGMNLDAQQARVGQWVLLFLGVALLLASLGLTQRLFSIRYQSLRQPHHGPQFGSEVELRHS
From the text: Although conversion of angiotensin I to angiotensin II by angiotensin-converting enzyme is probably the reaction of most importance in the pathology of hypertension, the activity of the isolated enzyme is more conveniently and accurately assayed by measuring its rate of cleavage of a simpler peptide substrate, hippuryl-L-histidyl-L-leucine. For determination of I50 values (concentrations of compounds expressed in micrograms/ml producing a 50% inhibition of angiotensin-converting enzyme) various concentrations of each compound are added to 13×100 mm tubes along with the following components at the indicated final concentrations in a final volume of 0.25 ml: 100 mM potassium phosphate buffer, pH 8.3; 300 mM sodium chloride; 5 mM hippuryl-L-histidyl-L-leucine; and 5 milliunits of angiotensin-converting enzyme of rabbit lung. Controls containing no inhibitor (100% activity), and those acidified before addition of the enzyme (0% activity) are similarly prepared. All of the enzymatic reactions are initiated by addition of the enzyme component; tubes are incubated for 30 minutes at 37° C.; and reactions are terminated by addition of 0.25 ml. of 1 N HCl. The hippuric acid formed by action of angiotensin-converting enzyme on hippuryl-L-histidyl-L-leucine is extracted into ethyl acetate, evaporated to dryness, redissolved in water and quantitated from its absorbance at 228 nm. The percent inhibition by each concentration of compound is calculated by comparison with the 0% and 100% activity controls. The concentrations of representative compounds of the present invention which inhibit activity of angiotensin-converting enzyme by 50% are shown in the following table: […]

[2] = test system: angiotensin I converting enzyme in excised guinea pig ileum; assay: Inhibition of angiotensin I converting enzyme in excised guinea pig ileum (contractile activity of angiotensin I); conditions: Krebs solution at 37°; angiotensin I 25 ng/ml
Procedure: The procedure for evaluating the inhibition of angiotensin I converting enzyme in excised guinea pig ileum is carried out as follows: varying concentrations of the compound are added to an excised guinea pig ileum bath in Krebs solution at 37°, aerated with a mixture of 95% O2 -5% CO2. After two minutes, angiotensin I (25 ng/ml) is added and the isotonic […] are measured. The concentration of representative compounds of the present invention (in micrograms/ml) which inhibit the contractile activity of angiotensin I by 50% (IC50) are shown in the following table: […]

[3] = test system: angiotensin I pressor response; assay: Inhibition of angiotensin I pressor response in unanesthetized rats, oral; format: in vivo, rat (male, Sprague-Dawley); conditions: angiotensin I 0.31 μg/kg, 2 animals
Procedure: Representative compounds of the present invention are administered orally to unanesthetized male rats of the Sprague-Dawley strain, weighing about 200 g., followed by an injection of 0.31 μg/kg of angiotensin I. The following table indicates the degree of inhibition obtained.

[4] = test system: 2-kidney Goldblatt renal hypertensive rat; assay: Mean blood pressure in 2-kidney Goldblatt renal hypertensive rat, oral; format: in vivo, rat (male, CF Nelson); conditions: second dosage day, 300 mg oral
From the text: Male rats of the CF Nelson strain are anesthetized with ether and each left renal artery is partially constricted with a silver clip (i.d. 0.22 mm). The right kidney and renal artery are left intact.

normotensive rat = assay: Blood pressure in normotensive rat, oral; format: in vivo; conditions: same dose (300 mg) orally
[5] = in vivo; cited from earlier work
[6] = test system: angiotensinogen and renin blood levels; conditions: normotensive rats; cited from earlier work
[7] = test system: anesthetized normotensive rats; conditions: intravenous; cited from earlier work

For `C[C@H](NC(=O)CCS)C(=O)O` [Example 2, N-(3-mercaptopropanoyl)-L-alanine], the IC50 [1] was 6.77 µM and the “IC50 (inhibit the contractile activity of angiotensin I by 50%)” value [2] was 0.94 µg/mL.

For `CC(C)C[C@H](NC(=O)CCS)C(=O)O` [Example 4, N-(3-Mercaptopropanoyl)-L-leucine], the IC50 [1] was 8.21 µM and the “IC50 (inhibit the contractile activity of angiotensin I by 50%)” value [2] was 2.0 µg/mL.

For `O=C(CCS)N[C@@H](Cc1ccccc1)C(=O)O` [Example 6, N-(3-Mercaptopropanoyl)-L-phenylalanine], the IC50 [1] was 3.39 µM and the “IC50 (inhibit the contractile activity of angiotensin I by 50%)” value [2] was 0.52 µg/mL.

With `N=C(N)NCCC[C@H](NC(=O)CCS)C(=O)O` [Example 8, N^α -(3-Mercaptopropanoyl)-L-arginine] the IC50 [1] was 0.648 µM and the “IC50 (inhibit the contractile activity of angiotensin I by 50%)” value [2] was 0.9 µg/mL.

In the case of `CN(CC(=O)O)C(=O)CCS` [Example 10, N-(3-Mercaptopropanoyl)sarcosine], the IC50 [1] was 10.2 µM and the “IC50 (inhibit the contractile activity of angiotensin I by 50%)” value [2] was 0.94 µg/mL.

For `O=C(O)CNC(=O)CCS` [Example 15, N-(3-Mercaptopropanoyl)glycine], the “% maximum inhibition of angiotensin I pressor response ± SE” value ([3]; 10 mg/kg oral) was 34.2 ± 6.7%, the “% maximum inhibition of angiotensin I pressor response ± SE” value ([3]; 100 mg/kg oral) was 61.5 ± 1.2% and the IC50 [1] was 12.3 µM. The “IC50 (inhibit the contractile activity of angiotensin I by 50%)” value [2] was 4.5 µg/mL.

In the case of `N=C(N)NCCC[C@H](NC(=O)C(CS)Cc1ccccc1)C(=O)O` (stereo partly drawn) [Example 34, N^α -(3-mercapto-2-benzylpropanoyl)-L-arginine], the “IC50 (inhibit the contractile activity of angiotensin I by 50%)” value [2] was 4.1 µg/mL.

In the case of `CC(S)C(=O)NCC(=O)O` (stereo not shown) [Example 51, N-2-Mercaptopropanoylglycine], the Mean blood pressure ([4]; Rat #9, 1 h after drug, before drug 222) was 206 mm Hg, the Mean blood pressure ([4]; Rat #9, 2 h after drug, before drug 222) was 173 mm Hg and the Mean blood pressure ([4]; Rat #9, 3 h after drug, before drug 222) was 157 mm Hg. It also gave a Mean blood pressure ([4]; Rat #9, 4 h after drug, before drug 222) of 184 mm Hg, a Mean blood pressure ([4]; Rat #9, 5 h after drug, before drug 222) of 206 mm Hg and a Mean blood pressure ([4]; Rat #9, 6 h after drug, before drug 222) of 199 mm Hg. The Mean blood pressure ([4]; Rat #10, 1 h after drug, before drug 206) was 203 mm Hg, the Mean blood pressure ([4]; Rat #10, 2 h after drug, before drug 206) was 190 mm Hg and the Mean blood pressure ([4]; Rat #10, 3 h after drug, before drug 206) was 189 mm Hg. For the same compound, the Mean blood pressure ([4]; Rat #10, 4 h after drug, before drug 206) was 199 mm Hg, the Mean blood pressure ([4]; Rat #10, 5 h after drug, before drug 206) was 195 mm Hg and the Mean blood pressure ([4]; Rat #10, 6 h after drug, before drug 206) was 197 mm Hg. For the same compound, the “effects on blood pressure” value (normotensive rat) was “no significant effects on blood pressure”, the “effects of blood pressure” value [5] was “no noticeable effects of blood pressure” and the angiotensinogen [6] was “increases angiotensinogen”. For the same compound, the renin blood levels [6] was “lowers renin blood levels”, the “lowering of the blood pressure” value [7] was “produced lowering of the blood pressure” and the “% maximum inhibition of angiotensin I pressor response ± SE” value ([3]; 10 mg/kg oral) was 29.9 ± 3.1%. The “% maximum inhibition of angiotensin I pressor response ± SE” value ([3]; 30 mg/kg oral) was 52.9 ± 15.8%, the “% maximum inhibition of angiotensin I pressor response ± SE” value ([3]; 100 mg/kg oral) was 64.9 ± 12.3% and the IC50 [1] was 15.9 µM. The “IC50 (inhibit the contractile activity of angiotensin I by 50%)” value [2] was 2.0 µg/mL.
